According to ChEMBL document CHEMBL3714762, “Agents and methods for treating ischemic and other diseases” (2012):
Converted amounts (≈) assume the structure as drawn.

Experiments:
[1] = Antiproliferative activity against human WERI cells assessed as inhibition of cell proliferation by measuring normalized ratio of propidium iodide uptake at 5 uM by propidium iodide uptake based fluoroskan microplate reader analysis; assay type: functional
[2] = Antiproliferative activity against human WERI cells assessed as inhibition of cell proliferation by propidium iodide uptake based fluoroskan microplate reader analysis; assay type: functional
[3] = Antiproliferative activity against human WERI cells assessed as inhibition of cell proliferation by measuring normalized ratio of propidium iodide uptake at 10 uM by propidium iodide uptake based fluoroskan microplate reader analysis; assay type: functional
HeLa = test: Antiproliferative activity against human HeLa cells assessed as inhibition of cell proliferation at 10 uM incubated for 72 hrs by Cell-titer-Glo cell viability assay; assay type: functional
[4] = Antiproliferative activity against human MCF10A cells assessed as inhibition of cell proliferation at 10 uM incubated for 72 hrs by Cell-titer-Glo cell viability assay; assay type: cell-based, MCF-10A
Y79 = test: Antiproliferative activity against human Y79 cells assessed as inhibition of cell proliferation at 10 uM incubated for 72 hrs by Cell-titer-Glo cell viability assay; assay type: functional; conditions: Y79, 72 h
[5] = Antiproliferative activity against mouse B16F10 cells assessed as inhibition of cell proliferation at 10 uM incubated for 72 hrs by Cell-titer-Glo cell viability assay; assay type: functional; conditions: B16-F10, 72 h
[6] = Stability in rat microsomes assessed half life; assay type: ADME, Microsome
[7] = Solubility in aqueous solution; assay type: physicochemical
MCF7 = test: Antiproliferative activity against human MCF7 cells assessed as inhibition of cell proliferation at 10 uM incubated for 72 hrs by Cell-titer-Glo cell viability assay; assay type: functional; conditions: MCF7, 72 h
[8] = Antiproliferative activity against human WI38 cells assessed as inhibition of cell proliferation at 10 uM incubated for 72 hrs by Cell-titer-Glo cell viability assay; assay type: cell-based, WI-38
[9] = Antiproliferative activity against human DMS53 cells assessed as inhibition of cell proliferation at 10 uM incubated for 72 hrs by Cell-titer-Glo cell viability assay; assay type: functional; conditions: DMS-53, 72 h
[10] = Antiproliferative activity against human WERI cells assessed as inhibition of cell proliferation at 10 uM by propidium iodide uptake based fluoroskan microplate reader analysis; assay type: functional
[11] = Antiproliferative activity against human WERI cells assessed as inhibition of cell proliferation at 5 uM by propidium iodide uptake based fluoroskan microplate reader analysis; assay type: functional

Structure (SMILES) | Ratio [1] | IC50 [2] [nM] | Ratio [3] | further results
O=C(c1sc2ccccc2c1Cl)N1CCCc2cc(Cl)ccc21 | 0.267 | 3690 | 0.049 | –
COc1ccc(C)c(N(Cc2cccnc2)C(=O)c2sc3ccccc3c2Cl)c1 | 0.08 | 2370 | 0.1 | inhibition at 10 µM (HeLa): > 40%
Cc1ccc2c(c1)CCN=C2c1sc2ccccc2c1Cl | 0.011 | 1830 | 0.003 | inhibition at 72 h, 10 µM [4]: > 40%; inhibition at 10 µM (HeLa): > 40%; inhibition at 10 µM (Y79): > 40%; inhibition at 10 µM [5]: > 40%
COc1ccc2c(Cl)c(C3NCCc4cc(OC)c(OC)cc43)sc2c1 (stereo not given) | – | – | – | half-life [6]: > 30 min; solubility [7]: 100 µM (≈ 39 µg/mL)
COc1ccc2sc(C(=O)N3CCCc4cc(C)ccc43)c(Cl)c2c1 | 0.116 | 2830 | 0.051 | inhibition at 72 h, 10 µM [4]: > 40%; inhibition at 10 µM (MCF7): > 40%; inhibition at 10 µM (HeLa): > 40%; inhibition at 10 µM (Y79): > 40%; inhibition at 10 µM [5]: > 40%
CC1c2ccsc2CCN1C(=O)c1sc2ccccc2c1Cl (stereo not given) | 0 | 1550 | 0.056 | –
COc1cc2c(cc1OC)C(c1sc3cccc(OC)c3c1Cl)NCC2 (stereo not given) | 0.008 | 320 | 0.012 | –
COc1ccc2c(c1)CCN(C)C2c1sc2ccccc2c1Cl (stereo not given) | 0.344 | 4340 | 0.027 | –
COc1cc2c(cc1OC)C(c1sc3ccccc3c1Cl)NCC2 (stereo not given) | 0.019 | 80 | 0 | –
COc1cc2c(cc1OC)C(c1sc3ccccc3c1Cl)=NCC2 | 0.011 | 50 | 0 | solubility [7]: 100 µM (≈ 35.8 µg/mL)
Cc1ccc2c(c1)CCCN2C(=O)c1sc2cccc(C)c2c1Cl | 0.235 | 2020 | 0.4 | –
COc1cc2c(cc1OC)C(c1sc3ccccc3c1Cl)N(C)CC2 (stereo not given) | 0.042 | 1770 | 0 | –
COc1cc2c(cc1OC)C(c1sc3cccc(C)c3c1Cl)=NCC2 | 0.042 | 340 | 0.028 | inhibition at 72 h, 10 µM [8]: > 40%; inhibition at 72 h, 10 µM [4]: > 40%; inhibition at 10 µM (MCF7): > 40%; inhibition at 10 µM [9]: > 40%; inhibition at 10 µM (HeLa): > 40%; solubility [7]: 100 µM (≈ 37.2 µg/mL); inhibition at 10 µM (Y79): > 40%; inhibition at 10 µM [5]: > 40%
Cc1c(Cc2ccc(Cl)c(Cl)c2)c(=O)oc2cc(O)c(F)cc12 | 0.314 | 4030 | 0.002 | –
CCCc1c(Cc2cccc(Cl)c2)c(=O)[nH]c2cc(OC)cc(OC)c12 | 0.072 | 960 | 0.037 | –
O=C(c1sc2ccccc2c1Cl)N1CCCc2ccccc21 | 0.545 | 9800 | 0.216 | –
COc1cccc2c1CCN=C2c1sc2cccc(C)c2c1Cl | 0.042 | 360 | 0.13 | inhibition at 72 h, 10 µM [8]: > 40%; inhibition at 72 h, 10 µM [4]: > 40%; inhibition at 10 µM (MCF7): > 40%; inhibition at 10 µM [9]: > 40%; inhibition at 10 µM (HeLa): > 40%; inhibition at 10 µM (Y79): > 40%; inhibition at 10 µM [5]: > 40%
COc1cc2c(cc1OC)CN(C(=O)c1sc3ccccc3c1Cl)CC2 | 0.042 | 620 | 0.024 | –
Fc1ccc2c(c1)CCCN2Cc1sc2ccccc2c1Cl | 0.286 | 4090 | 0.098 | –
COc1ccc(C)c(N(Cc2ccncc2)C(=O)c2sc3ccccc3c2Cl)c1 | 0.573 | 5730 | 0.228 | inhibition at 10 µM (HeLa): > 40%

Structure (SMILES) | Ratio [1] | IC50 [2] [nM] | Ratio [3] | further results
COc1ccc2c(c1)C(c1sc3cccc(C)c3c1Cl)=NCC2 | 0.019 | 1310 | 0.047 | inhibition at 72 h, 10 µM [8]: > 40%; inhibition at 72 h, 10 µM [4]: > 40%; inhibition at 10 µM (MCF7): > 40%; inhibition at 10 µM [9]: > 40%; inhibition at 10 µM (HeLa): > 40%; inhibition at 10 µM (Y79): > 40%
Cc1ccc2c(c1)CCCN2C(=O)c1[nH]c2ccccc2c1Cl | 0.77 | – | 0.76 | inhibition at 10 µM [10]: 33%; inhibition at 5 µM [11]: 9%
Cc1ccc(S(=O)(=O)Nc2sc3ccccc3c2Cl)cc1 | 0.297 | 3590 | 0.121 | –
COc1ccc2c(c1)CCCN2C(=O)c1sc2ccccc2c1Cl | 0.695 | 5660 | 0.276 | –
Cc1ccc(N(Cc2cccc(C)n2)C(=O)c2sc3ccccc3c2Cl)c(C)c1 | 0 | 840 | 0.1 | inhibition at 10 µM (HeLa): > 40%; inhibition at 10 µM (Y79): > 40%; inhibition at 10 µM [5]: > 40%
Cc1ccc2c(c1)CCCN2C(=O)c1sc2cccc(F)c2c1Cl | 0.273 | 3290 | 0.097 | –
COc1cc(OC)c2c(C)c(Cc3cccc(Cl)c3)c(=O)oc2c1 | 0.088 | 770 | 0.19 | –
Cc1ccc2c(c1)CCCN2C(=O)c1sc2ccc(F)cc2c1Cl | 0.321 | 4520 | 0.064 | –
COc1cc(OC)c2c(C)c(Cc3ccccc3)c(=O)[nH]c2c1 | – | – | – | half-life [6]: > 30 min
Cc1ccc(N(C)C(=O)c2sc3ccccc3c2Cl)c(C)c1 | 0.53 | 4570 | 0.33 | –
Cc1c(Cc2c(F)cccc2Cl)c(=O)oc2cc(O)cc(O)c12 | 0.721 | – | 0.102 | half-life [6]: 5 min
COc1ccc2c(c1)CCNC2c1sc2ccccc2c1Cl (stereo not given) | 0.016 | 1000 | 0.003 | –
COc1cc2c(cc1OC)C(c1sc3cccc(F)c3c1Cl)NCC2 (stereo not given) | 0.009 | 490 | 0 | –
COc1ccc2c(c1)C(c1sc3ccccc3c1Cl)=NCC2 | 0.36 | 3210 | 0.07 | –
CN(Cc1ccccc1N1CCCC1)C(=O)c1sc2ccccc2c1Cl | 0.234 | 3440 | 0.043 | –
COc1ccc2c(Cl)c(C(=O)N3CCCc4cc(C)ccc43)sc2c1 | 0.294 | 4030 | 0.11 | inhibition at 72 h, 10 µM [8]: > 40%; inhibition at 72 h, 10 µM [4]: > 40%; inhibition at 10 µM (MCF7): > 40%; inhibition at 10 µM [9]: > 40%; inhibition at 10 µM (HeLa): > 40%; inhibition at 10 µM (Y79): > 40%; inhibition at 10 µM [5]: > 40%
Clc1cccc2c1CCN=C2c1sc2ccccc2c1Cl | 0.065 | 2260 | 0.1 | –
Cc1c(Cc2cccc(Cl)c2)c(=O)oc2cc(O)ccc12 | 0.41 | 5590 | 0.041 | –
O=C(NCc1ccccc1N1CCCC1)c1sc2ccccc2c1Cl | 0.195 | 1250 | 0.375 | inhibition at 72 h, 10 µM [4]: > 40%; inhibition at 10 µM (MCF7): > 40%; inhibition at 10 µM [9]: > 40%; inhibition at 10 µM (HeLa): > 40%; inhibition at 10 µM (Y79): > 40%; inhibition at 10 µM [5]: > 40%
COc1cc2c(cc1OC)C(c1sc3cccc(C)c3c1Cl)NCC2 (stereo not given) | – | – | – | solubility [7]: 100 µM (≈ 37.4 µg/mL)
